The source of these data is PubChem BioAssay AID248 (DTP/NCI, 2004).

This test concerns L1210 leukemia ip in BDF1 mice, survival T/C. As to the kind of experiment: NCI In Vivo Anticancer Drug Screen. Data for tumor model L1210 Leukemia (intraperitoneal) in B6D2F1 (BDF1) mice. As to conditions: endpoint: mean survival time, higher = longer survival. In a few lines:
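Tumor was transplanted into mice, which were then dosed with test compound or vehicle alone. Survival was recorded for each group, and the treated figure was expressed relative to the control figure.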

The mark [1] stands for this setting: dose: 100.0 mg/kg/injection, schedule: Q01DX009 (ip), vehicle: saline.
The mark [2] stands for this setting: dose: 50.0 mg/kg/injection, schedule: Q01DX009 (ip), vehicle: saline with Tween-80.
Setting [3] is: dose: 100.0 mg/kg/injection, schedule: Q01DX001 (ip), vehicle: saline.
The mark [4] stands for this setting: dose: 200.0 mg/kg/injection, schedule: Q01DX001 (ip), vehicle: saline.
Setting [5] is: dose: 400.0 mg/kg/injection, schedule: Q01DX001 (ip), vehicle: saline.
Where [6] appears, read: dose: 100.0 mg/kg/injection, schedule: Q01DX001 (ip), vehicle: other.
[7] abbreviates: dose: 200.0 mg/kg/injection, schedule: Q01DX001 (ip), vehicle: other.
Where [8] appears, read: dose: 100.0 mg/kg/injection, schedule: Q04DX003 (ip), vehicle: Klucel (hydroxypropylcellulose) (HPC).
Where [9] appears, read: dose: 200.0 mg/kg/injection, schedule: Q04DX003 (ip), vehicle: Klucel (hydroxypropylcellulose) (HPC).
[10] abbreviates: dose: 100.0 mg/kg/injection, schedule: Q01DX009 (ip), vehicle: saline with Tween-80.
Where [11] appears, read: dose: 200.0 mg/kg/injection, schedule: Q01DX009 (ip), vehicle: saline with Tween-80.

“And” between values parts separate entries of the source, which are not always exact repeats. Equal values may be shown once. Inconclusive results and toxic doses are left out.

Turning to `CCOC(=O)C1(C(=O)OCC)C/C=C/CC(C(=O)OCC)(C(=O)OCC)C/C=C/C1`, the T/C is, setting by setting: under setting [1], 90 % of control; (dose: 100.0 mg/kg/injection, schedule: Q04DX003 (ip), vehicle: saline) 98 % of control; (dose: 200.0 mg/kg/injection, schedule: Q01DX009 (ip), vehicle: saline) 102 % of control; (dose: 200.0 mg/kg/injection, schedule: Q04DX003 (ip), vehicle: saline) 95 % of control; (dose: 400.0 mg/kg/injection, schedule: Q01DX009 (ip), vehicle: saline) 92 % of control; (dose: 400.0 mg/kg/injection, schedule: Q04DX003 (ip), vehicle: saline) 90 % of control.

With `CCN(CC)CCOC(=O)C(S)(c1ccccc1)C1CCCCC1` (centres undefined), the T/C by setting is: (dose: 75.0 mg/kg/injection, schedule: Q01DX001 (ip), vehicle: other) 90 % of control; (dose: 150.0 mg/kg/injection, schedule: Q01DX001 (ip), vehicle: other) 87 % of control.

As for `COc1ccc(COC(=O)Oc2ccc(C#N)cc2)cc1OC`, the T/C is, setting by setting: (dose: 100.0 mg/kg/injection, schedule: Q04DX003 (ip), vehicle: saline with Tween-80) 106 % of control; (dose: 200.0 mg/kg/injection, schedule: Q04DX003 (ip), vehicle: saline with Tween-80) 96 % of control; (dose: 400.0 mg/kg/injection, schedule: Q04DX003 (ip), vehicle: saline with Tween-80) 93 % of control.

In the case of `COc1ccccc1OCC(O)COc1ccccc1OC`, the T/C runs as follows: (dose: 12.5 mg/kg/injection, schedule: Q01DX009 (ip), vehicle: saline with Tween-80) 92 % of control; (dose: 12.5 mg/kg/injection, schedule: Q04DX003 (ip), vehicle: saline) 106 % of control; (dose: 25.0 mg/kg/injection, schedule: Q01DX009 (ip), vehicle: saline with Tween-80) 95 % of control; (dose: 25.0 mg/kg/injection, schedule: Q04DX003 (ip), vehicle: saline) 105 % of control; under setting [2], 94 % of control; (dose: 50.0 mg/kg/injection, schedule: Q04DX003 (ip), vehicle: saline) 105 % of control. Besides, the T/C is 104 % of control under setting [3], 100 % of control under setting [4] and 102 % of control under setting [5].

Regarding `Cc1cc(C)c(Nc2n[nH]c(=S)s2)cc1C`, the T/C was 87 % of control (dose: 100.0 mg/kg/injection, schedule: Q04DX002 (ip), vehicle: saline with Tween-80); 92 % of control (dose: 200.0 mg/kg/injection, schedule: Q04DX002 (ip), vehicle: saline with Tween-80); 94 % of control (dose: 400.0 mg/kg/injection, schedule: Q04DX002 (ip), vehicle: saline with Tween-80).

In the case of `COC1=C(C)CCC1=O`, the T/C by setting is: (dose: 37.5 mg/kg/injection, schedule: Q04DX002 (ip), vehicle: saline) 106 % of control; (dose: 75.0 mg/kg/injection, schedule: Q04DX002 (ip), vehicle: saline) 95 % of control; (dose: 150.0 mg/kg/injection, schedule: Q04DX002 (ip), vehicle: saline) 98 % of control; (dose: 300.0 mg/kg/injection, schedule: Q04DX002 (ip), vehicle: saline) 88 % of control.

Take `CCOC(=O)C(C)(C)CC(=O)COC`: the T/C was 98 % of control (dose: 100.0 mg/kg/injection, schedule: Q01DX001 (ip), vehicle: acetone); 95 % of control (dose: 100.0 mg/kg/injection, schedule: Q01DX009 (ip), vehicle: acetone); 100 % of control (dose: 200.0 mg/kg/injection, schedule: Q01DX001 (ip), vehicle: acetone); 90 % of control (dose: 200.0 mg/kg/injection, schedule: Q01DX009 (ip), vehicle: acetone); 94 % of control (dose: 400.0 mg/kg/injection, schedule: Q01DX001 (ip), vehicle: acetone); 105 % of control (dose: 400.0 mg/kg/injection, schedule: Q01DX009 (ip), vehicle: acetone).

As for `Oc1ccccc1C=NCCN=Cc1ccccc1O.[Ni]`, the T/C is 109 % of control (dose: 88.0 mg/kg/injection, schedule: Q01DX001 (ip), vehicle: other); 100 % of control under setting [6]; 107 % of control (dose: 133.0 mg/kg/injection, schedule: Q01DX001 (ip), vehicle: other); 108 % of control under setting [7].

As to `Cc1cc(N(CCOS(C)(=O)=O)CCOS(C)(=O)=O)ccc1C=Nc1ccc(-c2csc(-c3ccc(Br)cc3)n2)cc1`, the T/C runs as follows: under setting [1], 109 % of control; under setting [8], 150 % of control; (dose: 150.0 mg/kg/injection, schedule: Q01DX009 (ip), vehicle: saline) 101 % of control; under setting [9], 91 % of control.

For the compound `COc1cc([N+](=O)[O-])c(N)c([N+](=O)[O-])c1`, the T/C runs as follows: (dose: 50.0 mg/kg/injection, schedule: Q01DX001 (ip), vehicle: saline) 96 % of control; under setting [3], 108 % of control; under setting [4], 96 % of control; under setting [5], 93 % of control.

For `Cc1nc2cnc(N)nc2nc1C`, the T/C reads like this: (dose: 16.0 mg/kg/injection, schedule: Q01DX Z (ip), vehicle: methylcellulose (MC)) 97 % of control; (dose: 31.0 mg/kg/injection, schedule: Q01DX Z (ip), vehicle: methylcellulose (MC)) 97 % of control; (dose: 62.0 mg/kg/injection, schedule: Q01DX Z (ip), vehicle: methylcellulose (MC)) 109 % of control; under setting [6], 96 % of control; (dose: 125.0 mg/kg/injection, schedule: Q01DX Z (ip), vehicle: methylcellulose (MC)) 89 % of control and 90 % of control; under setting [7], 101 % of control. Further, the T/C was 91 % of control (dose: 250.0 mg/kg/injection, schedule: Q01DX Z (ip), vehicle: methylcellulose (MC)); 98 % of control (dose: 400.0 mg/kg/injection, schedule: Q01DX001 (ip), vehicle: other); 93 % of control (dose: 500.0 mg/kg/injection, schedule: Q01DX Z (ip), vehicle: methylcellulose (MC)).

`O=C(O)CCn1ccc2ccccc21`: the T/C runs as follows: under setting [8], 97 % of control; under setting [9], 97 % of control; (dose: 400.0 mg/kg/injection, schedule: Q04DX003 (ip), vehicle: Klucel (hydroxypropylcellulose) (HPC)) 97 % of control.

For the compound `N=C(N=Nc1c(O)[nH]c2ccccc12)N[N+](=O)[O-]`, the T/C (dose: 6.25 mg/kg/injection, schedule: Q01DX009 (ip), vehicle: Klucel (hydroxypropylcellulose) (HPC)) is 95 % of control; the T/C (dose: 12.5 mg/kg/injection, schedule: Q01DX009 (ip), vehicle: Klucel (hydroxypropylcellulose) (HPC)) was 101 % of control; the T/C (dose: 12.5 mg/kg/injection, schedule: Q04DX003 (ip), vehicle: Klucel (hydroxypropylcellulose) (HPC)) is 100 % of control; the T/C (dose: 25.0 mg/kg/injection, schedule: Q01DX009 (ip), vehicle: Klucel (hydroxypropylcellulose) (HPC)) was 91 % of control; the T/C (dose: 25.0 mg/kg/injection, schedule: Q04DX003 (ip), vehicle: Klucel (hydroxypropylcellulose) (HPC)) is 102 % of control.

For the compound `CC(C)(C)C(Br)CBr` (centres undefined), the T/C by setting is: under setting [2], 101 % of control; under setting [10], 101 % of control; under setting [11], 97 % of control.

Consider `O=C(O)c1ccc(N=Cc2c(Cl)cccc2Cl)cc1`, for which the T/C is, setting by setting: (dose: 100.0 mg/kg/injection, schedule: Q01DX009 (ip), vehicle: Klucel (hydroxypropylcellulose) (HPC)) 104 % of control; (dose: 200.0 mg/kg/injection, schedule: Q01DX009 (ip), vehicle: Klucel (hydroxypropylcellulose) (HPC)) 101 % of control; (dose: 400.0 mg/kg/injection, schedule: Q01DX009 (ip), vehicle: Klucel (hydroxypropylcellulose) (HPC)) 104 % of control.

Consider `COC(=O)c1ccc(OC)c(-c2cc(OC)ccc2C(=O)OC)c1`, for which the T/C reads like this: (dose: 100.0 mg/kg/injection, schedule: Q04DX002 (ip), vehicle: Klucel (hydroxypropylcellulose) (HPC)) 112 % of control; (dose: 200.0 mg/kg/injection, schedule: Q04DX002 (ip), vehicle: Klucel (hydroxypropylcellulose) (HPC)) 101 % of control; (dose: 400.0 mg/kg/injection, schedule: Q04DX002 (ip), vehicle: Klucel (hydroxypropylcellulose) (HPC)) 104 % of control.

In the case of `COc1ccc(-c2c(-c3ccccc3)oc3ccc4ccccc4c23)cc1`, the T/C runs as follows: under setting [10], 87 % of control; under setting [11], 93 % of control; (dose: 400.0 mg/kg/injection, schedule: Q01DX009 (ip), vehicle: saline with Tween-80) 92 % of control.
